Source: patent publication US8142764B2, “Synthetic biofilm-inhibiting peptides” (priority 2008, dated 2012)
“Also recorded” adds a separate entry of the source. Where no end group is shown, it is not given here.

Legend:
[1] = system: proteolytic activity of P. gingivalis; type: cell-based, Porphyromonas gingivalis; conditions: intact cells pre-treated with inhibitor
From the text: Inhibition of protease activity. The proteolytic activity of P. gingivalis was inhibited using a bacterial protease inhibitor cocktail (Sigma, St. Louis, Mo.) containing the following inhibitors: 4-(2-Aminoethyl)benzenesulfonyl fluoride hydrochloride (AEBSF), N-(trans-epoxysuccinyl)-L-leucine 4 guanidinobutylamide (E-64), sodium ethylenediaminetetra-acetate (EDTA), bestatin and pepstatin A. The inhibitor cocktail was suspended in dimethylsulfoxide (DMSO) (Sigma, St. Louis, Mo.) at the concentration recommended by the manufacturer.

[2] = system: P. gingivalis/S. gordonii biofilm; assay: Inhibition of P. gingivalis adherence and biofilm formation on S. gordonii (open flow cell, confocal microcolony count); type: cell-based, Porphyromonas gingivalis; conditions: for inhibition of biofilm formation: peptide 3.38 μM
Method: P. gingivalis adherence and biofilm formation. The adherence of intact P. gingivalis to S. gordonii cells and the subsequent formation of biofilms was carried out using an open flow system essentially as previously described by Amorin Daep et al. Infect Immun 74:5756-62 (2006) and Lamont et al. Microbiology 148:1627-36 (2002). The flow reactor comprised a Manostat Carter 4/8 cassette peristaltic pump (Fisher Scientific, Suwanee, Ga.) using 0.89 millimeter platinum-cured silicone tubing (Fisher Scientific, Suwanee, Ga.) and a BST FC 71 flow cell (Biosurface Technologies, Corp, Bozeman, Mont.). A single surface of a 15×40 mm cover glass (Fisher Scientific, Suwanee, Ga.) was coated with 0.22 μm filter sterilized saliva and incubated at 37° C. for 30 minutes. The saliva coated coverglass was then washed with sterile 1×PBS at a flow rate of 6 ml per hour for 30 minutes to remove unbound salivary constituents.
S. gordonii DL-1 cells were harvested by centrifugation at 4000 rpm at 4° C. for 15 minutes and suspended in 25 ml of sterile 1×PBS. S. gordonii cells were labeled with 20 μl of hexidium iodide (1.6 mg/ml, Molecular Probes, Eugene, Oreg.) at 25° C. for 30 minutes in the dark and washed with PBS. Adherence of streptococci to the saliva coated cover glass was carried out by delivering S. gordonii cells to the flow chamber at a flow rate of 6 ml per hour for approximately 2 hours. Following inoculation with S. gordonii, the flow cell was washed with sterile 1×PBS for 30 minutes at 6 ml per hour to remove non-adherent bacteria from the cover glass.
P. gingivalis ATCC 33277 cells were harvested by centrifugation at 4000 rpm at 4° C. for 45 minutes, suspended in 25 ml of sterile 1×PBS, and introduced into the flow cell at a flow rate of 6 ml per hour for 2 hours at 25° C. to allow P. gingivalis to adhere and accumulate on the streptococcal substrate. Flow cells were subsequently washed with sterile 1×PBS to remove non-adherent P. gingivalis cells. To visualize adherent P. gingivalis, rabbit anti-P. gingivalis 33277 polyclonal antibody diluted 3:5000 in 5 ml of sterile 1×PBS was flowed into the cell at a rate of 6 ml per hour. The flow cell was then washed with sterile 1×PBS for 1 hour, reacted with anti-rabbit IgG fluorescein isothiocyanate (FITC) conjugate (Sigma, St. Louis, Mo.) in sterile 1×PBS (1:5000) for 1 hour at 6 ml per hour, and received a final wash with sterile 1×PBS as above. Under these conditions, the streptococci bound to the saliva coated coverglass as a non-confluent layer comprising single cells and small aggregates. P. gingivalis subsequently adhered to and formed distinct microcolonies on the immobilized streptococci. The microcolonies were visualized and quantified by confocal microscopy as described below.
Confocal microscopy and analysis of P. gingivalis biofilms. P. gingivalis-S. gordonii biofilms were visualized using an Olympus FluoView 500 confocal laser scanning microscope (Olympus, Pittsburgh, Pa.) under 600× magnification using an Argon laser for visualization of FITC labeling and the HeNe-G laser to visualize hexidium iodide labeled streptococci. The number and depth of FITC-labeled P. gingivalis microcolonies was determined from 30 to 60 randomly chosen frames using the FluoView software package provided by Olympus. Microcolony depth was determined by performing Z-plane scans from 0 μm to 30 μm above the coverglass surface. P. gingivalis microcolonies that formed on S. gordonii in the absence of peptide inhibitor ranged from 7 to 16 μm in depth under the experimental conditions used.
Inhibition of P. gingivalis adherence and bioflim formation. […] The P. gingivalis-peptide suspension was then introduced into the flow cell for 2 hours at a flow rate of 6 ml per hour as described above and P. gingivalis microcolonies were analyzed by confocal microscopy. Data was analyzed using GraphPad InStat3 (GraphPad Software Co.).

[3] = system: P. gingivalis/S. gordonii biofilm; conditions: 0.3 μM
Method: P. gingivalis biofilm formation with S. gordonii. The formation of dual species P. gingivalis/S. gordonii biofilms was carried out essentially as previously described by Lamont et al (2002. Microbiology 148:1627-36.) and Daep et al. (Immun 74:5756-62 (2006); Infect Immun 76:3273-80 (2008)). The bacterial biofilms were cultured using a Manostat Carter 4/8 cassette peristaltic pump (Fisher Scientific, Suwanee, Ga.) with 0.89 millimeter platinum-cured silicone tubing (Fisher Scientific, Suwanee, Ga.) and BST FC 71 flow cells (Biosurface Technologies, Corp, Bozeman, Mont.). […]
P. gingivalis cells were harvested by centrifugation at 4000 rpm at 4° C. for 45 minutes, suspended in 20 ml of sterile 1×PBS, and introduced into the flow cell at a flow rate of 6 ml per hour for 2 hours to allow the bacteria to adhere and accumulate on the streptococcal substrate. […] P. gingivalis microcolonies bound to immobilized streptococci were quantified by confocal microscopy as described below.
The bacteria were incubated with 0 and 0.845 μM peptide at ambient temperature for 30 minutes and introduced into the flow cell containing an existing streptococcal substrate for 2 hours at a flow rate of 6 ml per hour. Biofilm formation was analyzed by confocal microscopy as described below. Data was analyzed using GraphPad InStat3 software (GraphPad Software Co.) using a non-parametric analysis of variance (ANOVA). […]

Mfa1 = Mfa1 (Porphyromonas gingivalis, UniProt B2RHG1); conditions: read-out: dissociation constant of the BAR-Mfa1 interaction; previously calculated; cited from earlier work
[4] = system: proteases produced by P. gingivalis; assay: Proteolytic degradation of BAR by P. gingivalis cells, culture supernatant or extracts (tricine gel, densitometry); type: in vitro ADME, Porphyromonas gingivalis
Method: Proteolytic degradation of BAR by P. gingivalis. One milliliter of mid-exponential phase cultures of P. gingivalis SMF, P. gingivalis KDP128, P. gingivalis KDP129, or P. gingivalis E8 was centrifuged at 8000 rpm for 5 minutes at 4° C. The bacterial pellet was washed 3 times with 1 ml of sterile 1×PBS (100 mM sodium phosphate, pH 7.4, 150 mM NaCl). […] For some experiments, digital images of the stained gels were obtained using Epson Stylus CX3810 flatbed scanner (Espson America, Inc., Long Beach, Calif.) and analyzed by densitometry using ImageJ software (found on the world-wide-web at rsbweb.nih.gov/ij/).

[5] = Circular dichroism (CD) spectroscopy, K2D secondary structure estimate; type: physicochemical; conditions: 1.4 mM peptide in phosphate buffer
Method: Circular dichroism (CD) spectroscopy. CD experiments were carried out at 25° C. using Jasco J-810 spectropolarimeter (Jasco, Easton, Md.). A 40 μl sample of peptide at a concentration of 1.4 mM in filter sterilized 0.1 M phosphate buffer (pH=7.2) was analyzed in a 0.01 cm quartz cuvette (Starna Cells, Inc., Atascadero, Calif.) using the following parameters: sensitivity=100 mdeg, start wavelength=340 nm, end wavelength=180 nm, continuous scanning mode at 200 nm/minute, response=1 second, and bandwidth=1 nm. Nitrogen was flushed into the system at a rate of […] during each experiment. A total of 10 scans were accumulated and averaged and the appropriate blanks were subtracted from the spectra. The resulting spectra were expressed in molar ellipticity. Normalized CD data were analyzed using K2D software (on the world-wide web at embl-heidelberg.de/˜andrade/k2d.html)) to estimate α-helical, β-sheet, and random coil content.

Sequence of Mfa1 (B2RHG1 50-563): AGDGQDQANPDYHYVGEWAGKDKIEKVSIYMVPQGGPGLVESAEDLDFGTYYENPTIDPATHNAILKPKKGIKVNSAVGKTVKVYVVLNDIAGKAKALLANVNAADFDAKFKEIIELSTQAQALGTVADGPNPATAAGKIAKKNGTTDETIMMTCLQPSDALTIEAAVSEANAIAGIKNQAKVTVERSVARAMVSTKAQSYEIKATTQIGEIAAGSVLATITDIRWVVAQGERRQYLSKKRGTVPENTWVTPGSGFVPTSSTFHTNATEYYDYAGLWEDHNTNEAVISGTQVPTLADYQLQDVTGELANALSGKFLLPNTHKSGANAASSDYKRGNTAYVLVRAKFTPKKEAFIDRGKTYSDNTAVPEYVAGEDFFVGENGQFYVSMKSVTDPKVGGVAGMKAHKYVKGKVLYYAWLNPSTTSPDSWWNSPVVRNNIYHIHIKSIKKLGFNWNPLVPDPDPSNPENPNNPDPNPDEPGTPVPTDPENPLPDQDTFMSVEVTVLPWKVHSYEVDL

CC(C)C[C@H](NC(=O)[C@H]1O[C@@H]1C(=O)O)C(=O)NCCCCN=C(N)N (relative stereo) [E-64, N-(trans-epoxysuccinyl)-L-leucine 4 guanidinobutylamide]
concentrations that prevent cleavage of BAR by P. gingivalis (in words) [1]: mM range

Cl.NCCc1ccc(S(=O)(=O)F)cc1 [AEBSF, 4-(2-Aminoethyl)benzenesulfonyl fluoride hydrochloride]
concentrations that prevent cleavage of BAR by P. gingivalis (in words) [1]: mM range

O=C([O-])CN(CCN(CC(=O)[O-])CC(=O)[O-])CC(=O)[O-].[Na+].[Na+].[Na+].[Na+] [EDTA, sodium ethylenediaminetetra-acetate]
concentrations that prevent cleavage of BAR by P. gingivalis (in words) [1]: mM range

CC(C)C[C@H](NC(=O)[C@@H](O)[C@H](N)Cc1ccccc1)C(=O)O [bestatin]
concentrations that prevent cleavage of BAR by P. gingivalis (in words) [1]: mM range

LEAAPKKVPGLLKKANITVKGAFQLFS [BAR-X]
inhibition of biofilm formation [2]: ~15%

LEAAPKKVQDLLKKANITVKGAFQLFS [BAR]
inhibitory activity on biofilm formation [3]: ~50%
Kd (Mfa1): ~900 nM
degradation by P. gingivalis 33277 (in words) ([4]; 5 μg BAR, wild type cells): immediate degradation
degradation by P. gingivalis culture supernatant (in words) ([4]; 5 μg peptide, 37° C., 0 to 60 minutes): more slowly degraded; also recorded: time dependent degradation
proteolytic cleavage by P. gingivalis culture extracts (in words) ([4]; 1 hour incubation, 10-20% Tris-Tricine gel): slowly degraded
relative density (R.D.) of remaining BAR peptide ([4]; E8 whole cells, within 5 minutes (first value of 'R.D.=32.5 vs. 21.6')): 32.5
relative density (R.D.) of remaining BAR peptide ([4]; P. gingivalis SMF1 with rMfa1, T=5 minutes, loading control R.D.=61.07): 47.3
relative density (R.D.) of remaining BAR peptide ([4]; P. gingivalis SMF1 with rMfa1, T=30 minutes, loading control R.D.=61.07): 8.2
relative density (R.D.) of remaining BAR peptide ([4]; P. gingivalis SMF1 without rMfa1, T=5 minutes, loading control R.D.=61.07): −5.75
relative density (R.D.) of remaining BAR peptide ([4]; P. gingivalis SMF1 without rMfa1, T=30 minutes, loading control R.D.=61.07): −20.32
relative density (R.D.) of remaining BAR peptide ([4]; gingipain deficient P. gingivalis KDP128, T=5 minutes, loading control R.D.=115.85): 96.23
relative density (R.D.) of remaining BAR peptide ([4]; gingipain deficient P. gingivalis KDP128, T=10 minutes, loading control R.D.=115.85): 115.85
degradation by P. gingivalis E8 (lacks Arg-X gingipains), in words ([4]; intact cells): rapidly degraded; also recorded: immediate degradation
degradation by P. gingivalis KDP128 (lacks Lys-X and Arg-X gingipains), in words ([4]; intact cells): Little degradation was observed after incubation for 10 minutes; also recorded: attenuated proteolytic activity against the peptide
degradation by P. gingivalis KDP129 (lacks Lys-X gingipains), in words ([4]; intact cells): attenuated degradation; also recorded: Little degradation was observed
degradation by intact P. gingivalis cells in the presence of purified Mfa1 (in words) ([4]; pre-incubation with Mfa1): little degradation occurred after 5 minutes; also recorded: protection from proteolytic degradation
relative density (R.D.) of remaining BAR peptide, comparator ([4]; second value of 'R.D.=32.5 vs. 21.6', apparently wild type 33277, 5 minutes): 21.6
inhibition of P. gingivalis microcolony formation ([2]; peptide 0.34 μM): 3%
inhibition of P. gingivalis microcolony formation ([2]; peptide 0.85 μM): 7%
inhibition rate of P. gingivalis/S. gordonii biofilm formation ([2]; peptide 1.7 μM): 80%
inhibition of biofilm formation [2]: ~75%

LEAAPKKVQDLLKKARITIKGAFQLFS [BAR-II]
α-helix content [5]: 28%
biofilm inhibitory activity (in words) [2]: more potent inhibitor of P. gingivalis adherence and biofilm development than BAR
fold difference in I50 / potency relative to BAR ([2]; I50 0.52 μM versus 1.25 μM): approximately 2.5 fold
IC50 ([2]; P. gingivalis pre-incubated with peptide, streptococcal substrate, read-out: I50 for inhibition of P. gingivalis adherence and biofilm formation): 520 nM
inhibition of P. gingivalis microcolony formation ([2]; peptide 0.34 μM): 25%
inhibition of P. gingivalis microcolony formation ([2]; peptide 0.85 μM): 82%

LQAAPKKVQDLLKKANITVKGAFQLFS [BAR-XIV]
inhibitory activity compared to BAR (in words) ([2]; peptide 1.7 μM): significant decrease in inhibitory activity
restoration of inhibitory activity (in words) ([2]; peptide 17 μM): did not show partial or full restoration
